Activity calls are given as the source filed them. The rule behind the calls is not given here.
How the values were obtained:
[1] = system: A549; assay: Induction of apoptosis in human A549 cells assessed as early apoptotic cells at 10 nM for 24 hrs by annexin V-FITC/propidium iodide staining-based flow cytometry analysis (reference value: 0.82%); assay type: functional
[2] = system: A549; assay: cells; conditions: Homo sapiens, A549, 48 h
[3] = system: A549; assay: Induction of apoptosis in human A549 cells assessed as downregulation of Bcl2 expression at 1 to 10 nM after 24 to 48 hrs by Western blot analysis; assay type: functional, cell-based
[4] = system: MDA-MB-231; assay: Antiproliferative activity against human MDA-MB-231 cells after 48 hrs by MTT assay; conditions: MDA-MB-231, 48 h
[5] = system: HepG2; assay: cells; conditions: Homo sapiens, HepG2, 48 h
[6] = system: A549; assay: Induction of apoptosis in human A549 cells assessed as downregulation of Bcl-xl expression at 1 to 10 nM after 24 to 48 hrs by Western blot analysis; assay type: functional, cell-based
[7] = system: A549; assay: Disruption of mitochondrial membrane potential in human A549 cells assessed as intact mitochondrial membrane at 5 nM after 24 hrs by JC1 staining-based flow cytometry method (reference value: 99.18%); assay type: functional
[8] = Resistance index, ratio of IC50 for human HepG2/DOX cells to IC50 for human HepG2 cells; assay type: functional
[9] = Resistance index, ratio of IC50 for human A549/CDDP cells to IC50 for human A549 cells; assay type: functional
[10] = system: A549; assay: Induction of apoptosis in human A549 cells assessed as live cells at 1 nM for 48 hrs by annexin V-FITC/propidium iodide staining-based flow cytometry analysis (reference value: 99.01%); assay type: functional
[11] = system: A549; assay: Induction of apoptosis in human A549 cells assessed as necrotic cells at 10 nM for 24 hrs by annexin V-FITC/propidium iodide staining-based flow cytometry analysis (reference value: 0.03%); assay type: functional
[12] = system: A549; assay: Induction of apoptosis in human A549 cells assessed as late apoptotic cells at 1 nM for 48 hrs by annexin V-FITC/propidium iodide staining-based flow cytometry analysis; assay type: functional
[13] = Antiproliferative activity against human HepG2/DOX cells after 48 hrs by MTT assay; assay type: functional, cell-based
[14] = system: A549; assay: Induction of apoptosis in human A549 cells assessed as live cells at 10 nM for 48 hrs by annexin V-FITC/propidium iodide staining-based flow cytometry analysis (reference value: 99.01%); assay type: functional
[15] = system: A549; assay: Induction of apoptosis in human A549 cells assessed as early apoptotic cells at 1 nM for 24 hrs by annexin V-FITC/propidium iodide staining-based flow cytometry analysis (reference value: 0.82%); assay type: functional
[16] = system: RKO; assay: Antiproliferative activity against human RKO cells after 48 hrs by MTT assay
[17] = system: A549; assay: Induction of apoptosis in human A549 cells assessed as early apoptotic cells at 5 nM for 48 hrs by annexin V-FITC/propidium iodide staining-based flow cytometry analysis (reference value: 0.97%); assay type: functional
[18] = system: A549; assay: Induction of apoptosis in human A549 cells assessed as live cells at 1 nM for 24 hrs by annexin V-FITC/propidium iodide staining-based flow cytometry analysis (reference value: 99.15%); assay type: functional
[19] = Metabolic stability in Sprague-Dawley rat liver microsomes assessed as compound remaining after 150 mins in presence of NADPH by UV-based HPLC-MS/MS analysis; assay type: ADME, microsome; conditions: Sprague-Dawley, liver microsomes, read-out: Stability
[20] = system: A549; assay: Induction of apoptosis in human A549 cells assessed as early apoptotic cells at 1 nM for 48 hrs by annexin V-FITC/propidium iodide staining-based flow cytometry analysis (reference value: 0.97%); assay type: functional
[21] = system: A549; assay: Induction of apoptosis in human A549 cells assessed as live cells at 10 nM for 24 hrs by annexin V-FITC/propidium iodide staining-based flow cytometry analysis (reference value: 99.15%); assay type: functional
[22] = system: A549; assay: Disruption of mitochondrial membrane potential in human A549 cells after 24 hrs by JC1 staining-based flow cytometry method; assay type: functional, cell-based
[23] = system: A2780; assay: cells; conditions: Homo sapiens, A2780, 48 h
Description: Antiproliferative activity against human A2780 cells after 48 hrs by MTT assay

[24] = system: MCF7; assay: cells; conditions: Homo sapiens, MCF7, 48 h
[25] = system: A549; assay: Disruption of mitochondrial membrane potential in human A549 cells at 1 to 10 nM after 24 hrs by JC1/Hoechst 33342 staining-based fluorescence microscopic method; assay type: functional, cell-based
[26] = system: A549; assay: Induction of microtubule disruption in human A549 cells at 5 to 10 nM after 8 to 24 hrs by Hoechst 33342 staining-based laser scanning confocal immunofluorescence microscopic analysis; assay type: cell-based
[27] = system: A549; assay: Induction of apoptosis in human A549 cells assessed as late apoptotic cells at 10 nM for 48 hrs by annexin V-FITC/propidium iodide staining-based flow cytometry analysis; assay type: functional
[28] = system: A549; assay: Disruption of mitochondrial membrane potential in human A549 cells at 5 nM after 24 hrs by JC1 staining-based flow cytometry method (reference value: 0.62%); assay type: functional
[29] = system: A549; assay: Induction of apoptosis in human A549 cells assessed as early apoptotic cells at 5 nM for 24 hrs by annexin V-FITC/propidium iodide staining-based flow cytometry analysis (reference value: 0.82%); assay type: functional
[30] = Metabolic stability in Sprague-Dawley rat liver microsomes assessed as compound remaining after 120 mins in presence of NADPH by UV-based HPLC-MS/MS analysis; assay type: ADME, microsome; conditions: read-out: Stability
[31] = system: A549; assay: Induction of apoptosis in human A549 cells assessed as necrotic cells at 1 nM for 48 hrs by annexin V-FITC/propidium iodide staining-based flow cytometry analysis (reference value: 0.02%); assay type: functional
[32] = Metabolic stability in Sprague-Dawley rat liver microsomes assessed as compound remaining after 90 mins in presence of NADPH by UV-based HPLC-MS/MS analysis; assay type: ADME, microsome; conditions: read-out: Stability
[33] = system: A549; assay: Cell cycle arrest in human A549 cells assessed as increase in accumulation of cells at G2/M phase at 5 to 10 nM after 24 hrs by propidium iodide staining-based flow cytometry method; assay type: functional
[34] = system: MGC-803; assay: Antiproliferative activity against human MGC803 cells after 48 hrs by MTT assay; conditions: MGC-803, 48 h
[35] = system: A549; assay: Induction of apoptosis in human A549 cells assessed as late apoptotic cells at 5 nM for 24 hrs by annexin V-FITC/propidium iodide staining-based flow cytometry analysis; assay type: functional
[36] = system: A549; assay: Induction of apoptosis in human A549 cells assessed as late apoptotic cells at 5 nM for 48 hrs by annexin V-FITC/propidium iodide staining-based flow cytometry analysis; assay type: functional
[37] = Metabolic stability in Sprague-Dawley rat liver microsomes assessed as compound remaining after 30 mins in presence of NADPH by UV-based HPLC-MS/MS analysis; assay type: ADME, microsome; conditions: read-out: Stability
[38] = system: A549; assay: Induction of apoptosis in human A549 cells assessed as late apoptotic cells at 10 nM for 24 hrs by annexin V-FITC/propidium iodide staining-based flow cytometry analysis; assay type: functional
[39] = system: A549; assay: Induction of apoptosis in human A549 cells assessed as early apoptotic cells at 10 nM for 48 hrs by annexin V-FITC/propidium iodide staining-based flow cytometry analysis (reference value: 0.97%); assay type: functional

In the case of `C=C(c1ccc(OC)c(O)c1)c1cc(OC)c(OC)c([Se]C)c1`, the Activity [1] is reported as 49.48%, the IC50 [2] is reported as 3.9 nM and the Activity [3] is reported as “Active”. The IC50 [4] was 2.2 nM, the IC50 [5] was 3 nM and the Activity [6] was “Active”. For the same compound, the Activity [7] was 57.63%, the “Ratio IC50” value [8] was 6.8 and the “Ratio IC50” value [9] was 8.8. It also gave an Activity [10] of 80.49%, an Activity [11] of 0.08% and an Activity [12] of 2.86%. It also gave an IC50 [13] of 20.3 nM, an Activity [14] of 23.45% and an Activity [15] of 3.63%. For the same compound, the IC50 [16] was 11 nM, the Activity [17] was 15.69% and the Activity [18] was 96.34%. It also gave a remaining at 2.5 h [19] of 25.8%, an Activity [20] of 15.79% and an Activity [21] of 48.49%. The Activity [22] was “Dose-dependent effect”, the IC50 [23] was 6 nM and the IC50 [24] was 27 nM. For the same compound, the Activity [25] was “Active”, the Activity [26] was “Active” and the Activity [27] was 20.44%. It also gave an Activity [28] of 42.63%, an Activity [29] of 31.36% and a remaining at 2 h [30] of 33.4%. For the same compound, the Activity [31] was 0.86%, the remaining at 1.5 h [32] was 44.1% and the Activity [33] was 70%. It also gave an IC50 [34] of 9 nM, an Activity [35] of 2.52% and an Activity [36] of 24.73%. For the same compound, the remaining at 0.5 h [37] was 81.1%, the Activity [38] was 1.45% and the Activity [39] was 42.57%.
